Target: USP7 (Homo sapiens, UniProt Q93009)
Experiment: biochemical
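Note: fluorescence intensity readout of USP7 enzymatic activity, reaction incubated 90 min at room temperature.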

USP7, sequence (Q93009 whole entry): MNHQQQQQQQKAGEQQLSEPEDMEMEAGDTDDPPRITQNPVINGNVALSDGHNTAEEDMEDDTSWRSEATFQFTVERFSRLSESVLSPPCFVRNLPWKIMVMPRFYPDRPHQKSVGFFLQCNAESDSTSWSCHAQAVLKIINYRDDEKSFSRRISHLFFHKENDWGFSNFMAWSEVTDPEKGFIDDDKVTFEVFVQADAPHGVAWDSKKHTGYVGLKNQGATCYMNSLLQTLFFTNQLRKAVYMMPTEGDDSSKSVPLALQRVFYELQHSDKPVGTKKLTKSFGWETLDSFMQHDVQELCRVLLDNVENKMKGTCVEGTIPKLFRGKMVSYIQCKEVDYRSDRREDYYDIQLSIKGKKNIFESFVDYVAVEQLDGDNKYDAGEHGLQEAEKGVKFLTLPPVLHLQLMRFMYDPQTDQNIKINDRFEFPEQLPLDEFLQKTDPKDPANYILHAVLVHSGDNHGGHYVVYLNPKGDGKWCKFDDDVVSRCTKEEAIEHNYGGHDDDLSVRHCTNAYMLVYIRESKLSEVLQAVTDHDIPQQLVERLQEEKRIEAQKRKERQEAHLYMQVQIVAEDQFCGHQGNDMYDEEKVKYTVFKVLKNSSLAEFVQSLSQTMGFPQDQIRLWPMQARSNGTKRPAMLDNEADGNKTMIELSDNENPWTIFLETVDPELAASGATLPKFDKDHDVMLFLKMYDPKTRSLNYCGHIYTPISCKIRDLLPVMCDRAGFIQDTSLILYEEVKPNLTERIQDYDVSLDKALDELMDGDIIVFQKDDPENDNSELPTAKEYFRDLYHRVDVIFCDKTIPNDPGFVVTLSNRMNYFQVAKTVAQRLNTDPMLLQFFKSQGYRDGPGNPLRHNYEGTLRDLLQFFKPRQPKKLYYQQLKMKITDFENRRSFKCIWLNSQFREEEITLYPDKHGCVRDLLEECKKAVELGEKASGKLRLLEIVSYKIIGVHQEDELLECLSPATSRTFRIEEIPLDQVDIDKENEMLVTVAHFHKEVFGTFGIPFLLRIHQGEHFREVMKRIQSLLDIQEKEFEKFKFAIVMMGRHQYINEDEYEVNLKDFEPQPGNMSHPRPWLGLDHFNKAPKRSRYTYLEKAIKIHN
Method: Example A. Biochemical Assay of USP7 Inhibitor Potency (IC50)
Fluorescence intensity assay of USP7 activity in the presence USP7 inhibitors. Recombinant USP7 protein (catalogue number E-519) and the fluorescence substrate ubiquitin-rhodamine 110 (Rh110) (catalogue number U-555) were purchased from Boston Biochem (840 Memorial Drive, Cambridge, MA 02139). The reaction was carried out in buffer 20 mM HEPES, pH 7.3, 150 mM NaCl, 1 mM TCEP, 125 μg/mL BSA at room temperature in a black 384-well Microplate (Greiner, catalog number 781076).
Test compounds were dissolved in DMSO to make 50 mM stock solution. […] In wells of a black 384-well Microplate, 15 μl of 100 pM of USP7 enzyme was added to each well with pre-diluted compounds and incubated at room temperature for 30 minutes, followed by addition of 10 μl of ubiquitin-rhodamine 110 (Rh110) substrate to reach 160 nM final concentration. The reaction mixtures were incubated for additional 90 minutes at room temperature. The fluorescence signal of the digested substrate was measured on an EnVision microplate reader (PerkinElmer,), using excitation at 485 nm and emission at 535 nm. The IC50 values were calculated using XLfit software.

Compound	IC50
N#Cc1cc(-c2ccnc3cc(Cn4c(=O)ccn(CC(F)F)c4=O)sc23)c2c(c1)[C@H]1C[C@H]1CN2[C@@H]1CCNC1 [Example 117a, (1aR,7bS)-4-(2-((3-(2,2-difluoroethyl)-2,6-dioxo-3,6-dihydropyrimidin-1(2H)-yl)methyl)thieno[3,2-b]pyridin-7-yl)-3-((R)-pyrrolidin-3-yl)-1a,2,3,7b-tetrahydro-1H-cyclopropa[c]quinoline-6-carbonitrile]	101 to 1000 nM
O=C1CCN(CC(F)(F)F)C(=O)N1Cc1cc2nccc(-c3cc(Cl)cc4c3N([C@H]3CCNC3)CCC4)c2s1 [Example 77, (S)-3-((7-(6-chloro-1-(pyrrolidin-3-yl)-1,2,3,4-tetrahydroquinolin-8-yl)thieno[3,2-b]pyridin-2-yl)methyl)-1-(2,2,2-trifluoroethyl)dihydropyrimidine-2,4(1H,3H)-dione]	< 10 nM
C[C@H](c1cc2nccc(-c3cc(C#N)cc4c3N([C@@H]3CCNC3)CCC4)c2s1)N1C(=O)CCC1=O (single isomer, unassigned) [Example 112c]	101 to 1000 nM
O=C1CCC(=O)N1Cc1cc2nccc(-c3cc(C(F)(F)F)cc4c3N([C@@H]3CCNC3)CCC4)c2s1 (single isomer, unassigned) [Example 78]	10 to 100 nM
O=c1ccn(CC(F)F)c(=O)n1Cc1cc2nccc(-c3cc(C(F)(F)F)cc4c3N([C@H]3CCNC3)CCC4)c2s1 [Example 81, (S)-1-(2,2-difluoroethyl)-3-((7-(1-(pyrrolidin-3-yl)-6-(trifluoromethyl)-1,2,3,4-tetrahydroquinolin-8-yl)thieno[3,2-b]pyridin-2-yl)methyl)pyrimidine-2,4(1H,3H)-dione]	< 10 nM
O=C1CCC(=O)N1Cc1cc2nccc(-c3cc(Cl)cc4c3N([C@@H]3CCCNCC3)CCC4)c2s1 (single isomer, unassigned) [Example 47b]	< 10 nM
COCCc1cnn(Cc2cc3nccc(-c4cc(Cl)cc5c4N([C@H]4CCNC4)CCC5)c3s2)c(=O)c1 [Example 66, (S)-2-((7-(6-chloro-1-(pyrrolidin-3-yl)-1,2,3,4-tetrahydroquinolin-8-yl)thieno[3,2-b]pyridin-2-yl)methyl)-5-(2-methoxyethyl)pyridazin-3(2H)-one]	< 10 nM
O=c1ccn(CC(F)(F)F)c(=O)n1Cc1cc2nccc(-c3cc(Cl)cc4c3N(C3CNC3)CCC4)c2s1 [Example 24, 3-[[7-[1-(azetidin-3-yl)-6-chloro-3,4-dihydro-2H-quinolin-8-yl]thieno[3,2-b]pyridin-2-yl]methyl]-1-(2,2,2-trifluoroethyl)pyrimidine-2,4-dione]	< 10 nM
CC1(C)C[C@H](N2CCCc3cc(Cl)cc(-c4ccnc5cc(CN6C(=O)CCC6=O)sc45)c32)CN1 [Example 119, (S)-1-((7-(6-chloro-1-(5,5-dimethylpyrrolidin-3-yl)-1,2,3,4-tetrahydroquinolin-8-yl)thieno[3,2-b]pyridin-2-yl)methyl)pyrrolidine-2,5-dione]	< 10 nM
O=C1CCC(=O)N1Cc1cc2nccc(-c3cc(Cl)cc4c3N(C3CC5(CCCN5)C3)CCC4)c2s1 (stereo not drawn) [Example 180, 1-((7-(6-chloro-1-(5-azaspiro[3.4]octan-2-yl)-1,2,3,4-tetrahydroquinolin-8-yl)thieno[3,2-b]pyridin-2-yl)methyl)pyrrolidine-2,5-dione]	10 to 100 nM
O=c1ccn(C[C@@H](O)C(F)(F)F)c(=O)n1Cc1cc2nccc(-c3cc(Cl)cc4c3N([C@H]3CCNC3)CCC4)c2s1 [Example 65, 3-((7-(6-chloro-1-((S)-pyrrolidin-3-yl)-1,2,3,4-tetrahydroquinolin-8-yl)thieno[3,2-b]pyridin-2-yl)methyl)-1-((R)-3,3,3-trifluoro-2-hydroxypropyl)pyrimidine-2,4(1H,3H)-dione]	< 10 nM
CC1(c2cnn(Cc3cc4nccc(-c5cc(C#N)cc6c5N([C@@H]5CN[C@@H](CO)C5)C[C@H]5C[C@@H]65)c4s3)c(=O)c2)CC1 (single isomer, unassigned) [Example 195a]	< 10 nM
O=C1CCC(=O)N1Cc1cc2nccc(-c3cc(Cl)cc4c3N(C3CNC3)C[C@@H]3C[C@H]43)c2s1 (single isomer, unassigned) [Example 43a]	> 1000 nM
O=c1ccn(C2CC2)c(=O)n1Cc1cc2nccc(-c3cc(Cl)cc4c3N([C@@H]3CNC5(CCC5)C3)CCC4)c2s1 [Example 148, (S)-3-((7-(6-chloro-1-(5-azaspiro[3.4]octan-7-yl)-1,2,3,4-tetrahydroquinolin-8-yl)thieno[3,2-b]pyridin-2-yl)methyl)-1-cyclopropylpyrimidine-2,4(1H,3H)-dione]	< 10 nM
O=c1cccnn1Cc1cc2nccc(-c3cc(Cl)cc4c3N(C3CNC3)CCC4)c2s1 [Example 16, 2-[[7-[1-(azetidin-3-yl)-6-chloro-3,4-dihydro-2H-quinolin-8-yl]thieno[3,2-b]pyridin-2-yl]methyl]pyridazin-3-one]	10 to 100 nM
O=C1CCC(=O)N1Cc1cc2nccc(-c3cc(Cl)cc4c3N(C3CNC5(CCC5)C3)C(=O)CO4)c2s1 (single isomer, unassigned) [Example 173b]	101 to 1000 nM
O=c1ccn(CC(F)F)c(=O)n1Cc1cc2nccc(-c3cc(Cl)cc4c3N(C3CCNC3)C[C@H]3C[C@@H]43)c2s1 (stereo in doubt) [Example 115, 3-[[7-[(1aS,3R,7bR)-6-chloro-3-pyrrolidin-3-yl-1,1a,2,7b-tetrahydrocyclopropa[c]quinolin-4-yl]thieno[3,2-b]pyridin-2-yl]methyl]-1-(2,2-difluoroethyl)pyrimidine-2,4-dione]	< 10 nM
C[C@]1(CO)C[C@H](N2CCCc3cc(C#N)cc(-c4ccnc5cc(CN6C(=O)CCC6=O)sc45)c32)CN1 [Example 209, 8-(2-((2,5-dioxopyrrolidin-1-yl)methyl)thieno[3,2-b]pyridin-7-yl)-1-((3S,5R)-5-(hydroxymethyl)-5-methylpyrrolidin-3-yl)-1,2,3,4-tetrahydroquinoline-6-carbonitrile]	< 10 nM
O=c1cc(C2CC2)cnn1Cc1cc2nccc(-c3cc(Cl)cc4c3N([C@@H]3CN[C@H](CO)C3)CCC4)c2s1 [Example 187, 2-((7-(6-chloro-1-((3S,5S)-5-(hydroxymethyl)pyrrolidin-3-yl)-1,2,3,4-tetrahydroquinolin-8-yl)thieno[3,2-b]pyridin-2-yl)methyl)-5-cyclopropylpyridazin-3(2H)-one]	< 10 nM
CC(C)(C)c1cnn(Cc2cc3nccc(-c4cc(C#N)cc5c4N([C@@H]4CN[C@@](C)(CO)C4)CCO5)c3s2)c(=O)c1 [Example 221, 5-[2-[(4-tert-butyl-6-oxo-pyridazin-1-yl)methyl]thieno[3,2-b]pyridin-7-yl]-4-[(3S,5R)-5-(hydroxymethyl)-5-methyl-pyrrolidin-3-yl]-2,3-dihydro-1,4-benzoxazine-7-carbonitrile]	< 10 nM
O=c1cc(CC(F)(F)F)cnn1Cc1cc2nccc(-c3cc(Cl)cc4c3N([C@@H]3CNC5(CCC5)C3)CCC4)c2s1 [Example 154, (S)-2-((7-(6-chloro-1-(5-azaspiro[3.4]octan-7-yl)-1,2,3,4-tetrahydroquinolin-8-yl)thieno[3,2-b]pyridin-2-yl)methyl)-5-(2,2,2-trifluoroethyl)pyridazin-3(2H)-one]	< 10 nM

— US20240158412A1 (Faxian Therapeutics, LLC, priority 2021, published 2024)
